Marks after values point to notes of the source that are not given here.
Legend:
Type in all cases: in vivo, albino Wistar rats
NF-kB-p65 = assay: Immunohistochemical staining of liver sections, NF-kB-p65 positive cells; conditions: low/high doses of safranal, DEN-exposed rats, vs HCC group
Procedure: (§1) The experimental hepatocarcinogenesis model was developed according to a protocol by Espandiaria et al. that was adapted for our purposes. To initiate and promote hepatocarcinogenesis, diethylnitrosamine (DEN) and 2-acetylaminofluorene (2-AAF) were used, respectively. For hepatocarcinogenesis initiation in this model, a single DEN dose (200 mg/kg b.wt.) dissolved in saline was injected intraperitoneally. After initiation, all rats underwent one period of 5-days fasting, as mitotic proliferative stimuli. To promote hepatocarcinogenesis, 2-acetylaminofluorene (2-AAF) was introduced in the form of six daily intragastric doses (30 mg/kg in 1% Tween 80); two weeks after DEN treatment.
Safranal at doses of 25 mg/kg by weight (b.wt.) and 50 mg/kg b.wt, was administrated orally to rats. These doses have been reported to suppress chemically-induced oxidative damage in rats. A total of 40 adult male albino Wistar rats were randomly divided into […] (n=8) and were subjected to different treatments. […]
(§2) For immunohistochemical staining, mounted sections were immersed in sodium citrate buffer (0.1 M, pH 6) and placed in a water bath for 15 minutes to unmask antigen epitopes. […] Ten fields were randomly selected to quantify positive cells, in individual samples (400×). […]

[1] = test system: superoxide dismutase (SOD); assay: Superoxide dismutase in liver homogenate, DEN/2-AAF hepatocarcinogenesis model; conditions: mean±SEM, 8 rats
Procedure: The experimental hepatocarcinogenesis model was developed according to a protocol by […] et al. that was adapted for our purposes. To initiate and promote hepatocarcinogenesis, diethylnitrosamine (DEN) and 2-acetylaminofluorene (2-AAF) were used, respectively. For hepatocarcinogenesis initiation in this model, a single DEN dose (200 mg/kg b.wt.) dissolved in saline was injected intraperitoneally. After initiation, all rats underwent one period of 5-days fasting, as mitotic proliferative stimuli. To promote hepatocarcinogenesis, 2-acetylaminofluorene (2-AAF) was introduced in the form of six daily intragastric doses (30 mg/kg in 1% Tween 80); two weeks after DEN treatment. […] at doses of 25 mg/kg by weight (b.wt.) and 50 mg/kg b.wt, was administrated orally to rats. These doses have been reported to suppress chemically-induced oxidative damage in rats. A total of 40 adult male albino Wistar rats were randomly divided into […] (n=8) and were subjected to different treatments. Group 1 (control) was orally administered distilled water (5 ml/kg b.wt.) throughout the experimental duration and were injected with a single dose of saline. Group 2 ([…] only) was subjected to a safranal dose (50 mg/kg b.wt.) through oral administration for the duration of the experimental period. Hepatocarcinogenesis was induced by DEN and promoted by 2-AAF, as reported previously, in group 3 (HCC). […] Glutathione (GSH) content was determined by analyzing liver homogenates, according to the method of Van Dooran et al. The assay depends on measuring yellow 5-thiol-2-nitrobenzoate absorbance at 412 nm. Glutathione-S-transferase (GST) activity was determined using the method of Habig et al. GST catalyzes the conjugation of GSH thiol group with 1-Chloro-2,4-dinitrobenzene (CDNB), which can be measured by determining the increase in absorbance at 340 nm. […] CAT decomposes hydrogen peroxide (H2O2) to oxygen and water; therefore, the activity of CAT was evaluated according to by the exponential decomposition of H2O2 at 240 nm. […] UV-160-Shimadzu recording spectrophotometer was used to record absorbances. […]

ED-1 (macrophages) = assay: Immunohistochemical staining of liver sections, ED-1 positive cells (macrophages); conditions: mean±SEM, 8 rats
Procedure: as §1
Safranal at doses of 25 mg/kg by weight (b.wt.) and 50 mg/kg b.wt, was administrated orally to rats. These doses have been reported to suppress chemically-induced oxidative damage in rats. A total of 40 adult male albino Wistar rats were randomly divided into […] (n=8) and were subjected to different treatments. Group 1 (control) was orally administered distilled water (5 ml/kg b.wt.) throughout the experimental duration and were injected with a single dose of saline. Group 2 (Safranal only) was subjected to a safranal dose (50 mg/kg b.wt.) through oral administration for the duration of the experimental period. Hepatocarcinogenesis was induced by DEN and promoted by 2-AAF, as reported previously, in group 3 (HCC). Rats in protective groups (groups 4-5) were treated with low/high doses of saffron-based safranal suspensions, at the beginning of promotion periods and continued for 12 weeks. The low dosage treatment with safranal consisted of 25 mg/kg b.wt., and the high dosage treatment consisted of 50 mg/kg b.wt. The experimental design is illustrated in FIG. 1.
as §2

[2] = HCC (DEN/2-AAF) rats + safranal high dose 50 mg/kg b.wt. oral, 12 weeks
[3] = HCC (DEN/2-AAF) rats + safranal low dose 25 mg/kg b.wt. oral, 12 weeks
[4] = safranal alone 50 mg/kg b.wt. oral, no DEN (group 2)

CC1=C(C=O)C(C)(C)CC=C1 [Safranal, 2,6,6-trimethylcyclohexa-1,3-diene-1-carbaldehyde] was tested, and the “number of NF-kB-p65-positive cells” value (NF-kB-p65) was “significantly reduced the number of NF-kB-p65-positive cells”, the SOD [1, 2] was 3.96 ± 0.13 unit/mg protein and the SOD [1, 3] was 4.02 ± 0.18 unit/mg protein. For the same molecule, the SOD [1, 4] was 4.05 ± 0.09 unit/mg protein, the ED-1 positive cells (ED-1 (macrophages); [2]) was 49.84 ± 2.28^b positive cells/field and the ED-1 positive cells (ED-1 (macrophages); [3]) was 59.19 ± 2.0^a&b positive cells/field. The ED-1 positive cells (ED-1 (macrophages); [4]) was 44.33 ± 1.52 positive cells/field.

Source: patent US10912741B2, “Prevention of liver cancer with safranal-based formulations” (United Arab Emirates University, priority 2019, dated 2021)
